Results on one compound are retold here after ChEMBL document CHEMBL1201862, “PubChem BioAssay data set” (2004).

Experiment [1] has as its system HEK293. Put plainly: HEK293T cell viability loss, resazurin readout – resazurin fluorescence, cytotoxicity control for NF-kB activator project, SAR follow-up (AID 493251). The experiment is classed as functional, cell-based. Particulars: Homo sapiens. Background: Alamar Blue is a resazurin reagent that responds to reducing activity.
In experiment [2] the test system is HEK293. Nature of the experiment: SAR Analysis of small molecule inhibitors of T-cell specific antigen receptor-induced NF-kB activation in a HEK-293T cell line using a luminescence assay - Set 2. [Related pubchem assays (depositor defined):AID435003, AID435012, AID489026]. The class given is functional, cell-based. Particulars: Homo sapiens.
The nature of experiment [3]: non-specific 3'UTR reporter inhibition in Clone20-Shn3RL – cell-based, Renilla luciferase, cherry-picked, counter-screen for Shn3 inhibitor project, dose response (AID 624133). The class given is functional. In general terms: The purpose of a counterscreen is to sort out artefacts and off-target activity.
Experiment [4] concerns Jurkat. Nature of the experiment: SAR Analysis of small molecule inhibitors of T-cell specific antigen receptor-induced NF-kB activation in a Jurkat cell line using a luminescence assay - Set 2. [Related pubchem assays (depositor defined):AID435003, AID435012, AID465]. The class given is functional, cell-based. The conditions noted are these: Homo sapiens.
Experiment [5] can be described thus: Counterscreen for AddAB inhibitors: absorbance-based bacterial cell-based high throughput dose response assay for inhibitors of bacterial viability. [Related pubchem assays (depositor defined):AID435030, AID449728, AID449731, AID488942, AID488955, AID488956]. The experiment is classed as functional.
The nature of experiment [6]: loss of viability in HepG2 cells – cell-based, CellTiter-Glo, cherry-picked, cytotoxicity control for Shn3 inhibitor project, dose response (AID 624134). The class given is functional. (In general: In ATP-based viability assays light output follows the ATP content of the culture.)
Experiment [7] deals with T1, Exodeoxyribonuclease V (Escherichia coli (strain K12), UniProt P04993+P07648+P08394).
T1 sequence (P04993 whole entry): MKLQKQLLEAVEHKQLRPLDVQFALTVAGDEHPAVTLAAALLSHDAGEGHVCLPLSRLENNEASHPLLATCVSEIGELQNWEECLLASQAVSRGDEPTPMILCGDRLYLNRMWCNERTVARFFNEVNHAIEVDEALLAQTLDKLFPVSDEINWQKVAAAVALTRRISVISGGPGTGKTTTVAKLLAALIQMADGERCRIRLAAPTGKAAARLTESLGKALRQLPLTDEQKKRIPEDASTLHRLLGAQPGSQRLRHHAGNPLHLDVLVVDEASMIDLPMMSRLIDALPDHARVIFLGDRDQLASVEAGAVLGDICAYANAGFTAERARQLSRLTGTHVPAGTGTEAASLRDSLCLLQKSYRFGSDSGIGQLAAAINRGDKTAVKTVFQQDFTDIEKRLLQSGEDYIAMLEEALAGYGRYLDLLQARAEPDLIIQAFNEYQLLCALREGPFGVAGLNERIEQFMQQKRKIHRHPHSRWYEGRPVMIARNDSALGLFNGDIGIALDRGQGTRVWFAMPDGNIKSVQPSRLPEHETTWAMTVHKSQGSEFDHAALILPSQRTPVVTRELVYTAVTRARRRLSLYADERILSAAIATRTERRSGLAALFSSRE
T1 sequence (P07648 whole entry): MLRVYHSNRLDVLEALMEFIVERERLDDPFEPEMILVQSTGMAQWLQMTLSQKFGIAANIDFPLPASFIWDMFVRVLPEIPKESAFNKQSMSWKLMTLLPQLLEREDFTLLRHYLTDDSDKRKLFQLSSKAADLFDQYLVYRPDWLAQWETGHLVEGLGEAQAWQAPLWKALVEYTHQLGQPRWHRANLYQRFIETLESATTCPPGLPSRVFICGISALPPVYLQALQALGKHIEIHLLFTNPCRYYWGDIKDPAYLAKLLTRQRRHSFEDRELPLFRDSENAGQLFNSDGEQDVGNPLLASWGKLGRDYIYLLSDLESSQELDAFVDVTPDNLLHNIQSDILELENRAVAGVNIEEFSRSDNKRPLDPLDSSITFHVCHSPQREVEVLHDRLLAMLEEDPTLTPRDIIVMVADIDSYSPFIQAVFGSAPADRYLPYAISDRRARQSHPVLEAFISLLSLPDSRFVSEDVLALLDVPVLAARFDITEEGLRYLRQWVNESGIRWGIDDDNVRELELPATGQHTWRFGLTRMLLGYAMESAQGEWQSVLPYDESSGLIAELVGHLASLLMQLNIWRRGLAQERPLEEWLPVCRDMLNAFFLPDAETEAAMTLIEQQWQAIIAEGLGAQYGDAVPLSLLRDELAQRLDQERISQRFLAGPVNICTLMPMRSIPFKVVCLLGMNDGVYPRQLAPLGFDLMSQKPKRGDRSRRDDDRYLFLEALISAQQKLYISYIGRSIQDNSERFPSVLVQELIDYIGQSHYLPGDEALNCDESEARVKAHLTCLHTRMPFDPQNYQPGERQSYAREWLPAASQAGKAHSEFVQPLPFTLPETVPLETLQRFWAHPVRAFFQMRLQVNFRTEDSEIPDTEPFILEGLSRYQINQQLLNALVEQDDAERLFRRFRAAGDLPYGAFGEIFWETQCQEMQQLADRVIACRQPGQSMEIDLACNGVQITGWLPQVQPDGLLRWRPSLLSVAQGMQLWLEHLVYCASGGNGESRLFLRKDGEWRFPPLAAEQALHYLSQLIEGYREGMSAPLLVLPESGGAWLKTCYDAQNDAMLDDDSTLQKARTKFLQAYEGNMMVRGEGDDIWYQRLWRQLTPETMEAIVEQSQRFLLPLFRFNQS
T1 sequence (P08394 whole entry): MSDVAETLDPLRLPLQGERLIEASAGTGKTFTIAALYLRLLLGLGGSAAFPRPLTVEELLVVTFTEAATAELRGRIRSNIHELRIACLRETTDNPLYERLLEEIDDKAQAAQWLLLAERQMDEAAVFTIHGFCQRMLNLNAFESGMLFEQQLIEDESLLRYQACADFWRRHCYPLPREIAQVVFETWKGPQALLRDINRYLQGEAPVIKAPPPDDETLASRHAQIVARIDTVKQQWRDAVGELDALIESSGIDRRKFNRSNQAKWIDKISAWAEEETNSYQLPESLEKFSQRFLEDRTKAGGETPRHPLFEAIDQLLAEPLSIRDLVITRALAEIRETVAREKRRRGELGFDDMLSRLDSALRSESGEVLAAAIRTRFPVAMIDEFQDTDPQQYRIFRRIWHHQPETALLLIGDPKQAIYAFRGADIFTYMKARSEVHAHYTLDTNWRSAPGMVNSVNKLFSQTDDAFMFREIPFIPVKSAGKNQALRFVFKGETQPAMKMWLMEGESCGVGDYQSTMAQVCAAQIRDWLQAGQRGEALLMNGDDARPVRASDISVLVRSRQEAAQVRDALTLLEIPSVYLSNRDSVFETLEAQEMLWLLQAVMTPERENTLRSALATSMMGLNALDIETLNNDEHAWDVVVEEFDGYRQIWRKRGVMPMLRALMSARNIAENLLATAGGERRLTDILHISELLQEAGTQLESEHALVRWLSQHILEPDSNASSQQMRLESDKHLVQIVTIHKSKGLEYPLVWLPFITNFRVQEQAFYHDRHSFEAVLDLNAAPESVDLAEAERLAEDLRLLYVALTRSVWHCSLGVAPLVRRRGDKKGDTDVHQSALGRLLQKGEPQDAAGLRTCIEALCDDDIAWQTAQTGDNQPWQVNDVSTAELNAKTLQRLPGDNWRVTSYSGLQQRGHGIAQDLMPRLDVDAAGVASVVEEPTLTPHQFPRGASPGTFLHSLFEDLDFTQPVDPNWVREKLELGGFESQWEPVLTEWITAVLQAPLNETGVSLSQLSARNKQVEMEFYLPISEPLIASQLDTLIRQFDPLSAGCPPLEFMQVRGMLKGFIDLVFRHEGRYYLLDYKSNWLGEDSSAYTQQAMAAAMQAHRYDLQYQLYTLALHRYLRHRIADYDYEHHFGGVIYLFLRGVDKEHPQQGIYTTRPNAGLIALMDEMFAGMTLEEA
Put plainly: RecBCD inhibition via phage-restricted bacterial growth – absorbance, V66 E. coli, mutant T4 phage, counter-screen for AddAB inhibitor project, dose response (AID 492957). The class given is functional, cell-based, Escherichia coli str. K-12 substr. MG1655.

Experiment [8] is described as follows: reduction of Shn3 3'UTR-driven luciferase in osteoblasts – cell-based, Clone20 osteoblasts, firefly luciferase, cherry-picked, dose response (AID 624132).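 Further: firefly luciferase luminescence from reporter carrying the Shn3 3'UTR in osteoblasts.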 The class given is functional.

Active and inactive are the calls of the source. A value given as a limit tells only on which side of the number the result lay.

In the case of `O=C(Nc1ccc2oc(-c3ccncc3)nc2c1)c1ccc([N+](=O)[O-])o1`, the IC50 (usually the concentration at which inhibition is half-maximal) in experiment [1] was > 80 µM (inactive); in experiment [2] it was 41.5 µM (inactive); in experiment [4], 55.5 µM (inactive); in experiment [5] it was > 119 µM (inactive); in experiment [7] it was > 119 µM (inactive). The AC50 (in general, the concentration giving half of the maximal activity seen) in experiment [3] was 20.7 µM (active); in experiment [6] it was > 70 µM (inactive); in experiment [8] it was 18.6 µM (active).
